Results taken from ChEMBL document CHEMBL1201862, “PubChem BioAssay data set” (2004).
The source made the active and inactive calls.

Key:
[1] = molecular target: Large T antigen (Simian virus 40, UniProt P03070); format: functional, Betapolyomavirus macacae;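 note: Confirmatory-stage PubChem screen for compounds that inhibit SV40 T antigen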
[2] = molecular target: FAD-linked sulfhydryl oxidase ALR (Homo sapiens, UniProt P55789); assay: ALR-catalysed DTT oxidation blockers – biochemical, H2O2 detection, luminescence, cherry-pick, dose response (AID 493248)
[3] = molecular target: T1, Ubiquitin-conjugating enzyme E2 N (Homo sapiens, UniProt P61088); format: functional;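 note: Dose-response confirmation in a TR-FRET assay detecting UBC13-driven polyubiquitin chain formation, inhibition measured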
T1 sequence (P61088 whole entry): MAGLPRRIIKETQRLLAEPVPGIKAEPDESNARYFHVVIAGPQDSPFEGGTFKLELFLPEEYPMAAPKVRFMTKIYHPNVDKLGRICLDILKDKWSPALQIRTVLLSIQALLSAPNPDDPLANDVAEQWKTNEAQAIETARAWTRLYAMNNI

[4] = molecular target: T2, RNA-binding protein pos-1 (Caenorhabditis elegans, UniProt G5EF15); assay: disruptors of C. elegans POS-1 RNA interaction – biochemical, fluorescence polarization, dose response (AID 1964);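 note: purified POS-1 fused to maltose binding protein made in E. coli; potency of compounds blocking POS-1 binding to fluorescent RNA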
T2 sequence (G5EF15 whole entry): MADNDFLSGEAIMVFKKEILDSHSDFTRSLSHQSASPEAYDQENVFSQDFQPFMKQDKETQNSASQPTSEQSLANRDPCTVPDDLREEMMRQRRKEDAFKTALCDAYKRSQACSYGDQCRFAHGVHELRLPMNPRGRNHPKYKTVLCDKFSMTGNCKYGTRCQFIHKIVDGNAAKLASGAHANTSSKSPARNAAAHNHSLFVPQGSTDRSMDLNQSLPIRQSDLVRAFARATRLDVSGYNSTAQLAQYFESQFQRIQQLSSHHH

[5] = molecular target: T3, Zinc finger protein mex-5 (Caenorhabditis elegans, UniProt Q9XUB2); assay: potency of MEX-5 RNA-binding blockers – biochemical, C. elegans, fluorescence polarization, dose response (AID 1960)
T3 sequence (Q9XUB2 whole entry): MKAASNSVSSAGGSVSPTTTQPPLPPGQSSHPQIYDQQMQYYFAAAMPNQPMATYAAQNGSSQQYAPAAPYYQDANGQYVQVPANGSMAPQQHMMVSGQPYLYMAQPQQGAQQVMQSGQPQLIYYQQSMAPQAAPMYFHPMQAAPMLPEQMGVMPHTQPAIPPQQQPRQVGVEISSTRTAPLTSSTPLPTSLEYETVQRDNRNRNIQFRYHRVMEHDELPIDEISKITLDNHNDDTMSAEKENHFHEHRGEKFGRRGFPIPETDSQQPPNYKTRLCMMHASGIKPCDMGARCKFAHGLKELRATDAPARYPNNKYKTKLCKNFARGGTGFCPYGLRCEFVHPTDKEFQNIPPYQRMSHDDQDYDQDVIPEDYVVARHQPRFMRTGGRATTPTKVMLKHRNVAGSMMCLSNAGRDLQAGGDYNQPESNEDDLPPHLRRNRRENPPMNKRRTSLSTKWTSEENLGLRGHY

[6] = luciferase reporter signal suppression in cells – H4 neuroglioma cells, luminescence, dose response (AID 1990); format: functional, cell-based
[7] = Luminescence Cell-Based Dose Response HTS to Identify Inhibitors of 5'UTR Stem-Loop Driven Prion Protein mRNA Translation in H4 Neuroglioblastoma Cells. [Related pubchem assays: 1827 (Project Summary), 1813 (Primary HTS)]; format: functional
[8] = alpha-synuclein stem-loop luciferase translation blockers – H4 neuroglioma cells, luminescence, confirmation (AID 1988); format: functional, cell-based
[9] = molecular target: T4, Replicative DNA helicase DnaB (Mycobacterium tuberculosis, UniProt P9WMR3); assay: DnaB intein splicing inhibitors, dose response, biochemical, cell-free fluorescence (AID 449749); format: functional
T4 sequence (P9WMR3 whole entry): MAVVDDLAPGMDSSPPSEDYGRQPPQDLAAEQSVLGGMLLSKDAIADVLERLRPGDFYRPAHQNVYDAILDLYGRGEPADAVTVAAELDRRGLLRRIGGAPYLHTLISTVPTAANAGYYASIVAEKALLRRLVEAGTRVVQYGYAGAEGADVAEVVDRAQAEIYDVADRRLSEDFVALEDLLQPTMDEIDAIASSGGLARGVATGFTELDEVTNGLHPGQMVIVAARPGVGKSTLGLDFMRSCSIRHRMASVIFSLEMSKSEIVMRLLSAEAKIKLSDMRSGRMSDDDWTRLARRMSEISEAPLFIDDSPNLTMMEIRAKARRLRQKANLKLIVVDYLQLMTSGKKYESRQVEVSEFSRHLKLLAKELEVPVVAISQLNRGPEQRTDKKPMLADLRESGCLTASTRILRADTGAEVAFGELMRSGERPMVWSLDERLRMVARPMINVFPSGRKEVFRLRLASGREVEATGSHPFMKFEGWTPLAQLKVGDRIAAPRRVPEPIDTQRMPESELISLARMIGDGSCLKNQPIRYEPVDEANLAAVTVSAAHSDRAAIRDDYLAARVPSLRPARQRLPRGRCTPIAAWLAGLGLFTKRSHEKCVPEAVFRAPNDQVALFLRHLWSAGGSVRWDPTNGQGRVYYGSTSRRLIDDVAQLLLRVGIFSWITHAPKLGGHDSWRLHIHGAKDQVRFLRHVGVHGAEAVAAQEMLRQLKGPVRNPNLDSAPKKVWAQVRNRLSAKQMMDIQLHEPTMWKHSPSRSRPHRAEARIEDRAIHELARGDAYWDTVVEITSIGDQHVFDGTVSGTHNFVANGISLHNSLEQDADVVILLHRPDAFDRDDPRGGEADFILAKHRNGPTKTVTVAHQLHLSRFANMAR

[10] = molecular target: T5, Protein RecA (Mycobacterium tuberculosis, UniProt P9WHJ3); assay: Fluorescence Cell-Free Homogeneous Dose Retest to Identify Inhibitors of RecA-Intein Splicing Activity. [Related pubchem assays (depositor defined):AID2097, AID2223, AID489010, AID492950]; format: functional
T5 sequence (P9WHJ3 whole entry): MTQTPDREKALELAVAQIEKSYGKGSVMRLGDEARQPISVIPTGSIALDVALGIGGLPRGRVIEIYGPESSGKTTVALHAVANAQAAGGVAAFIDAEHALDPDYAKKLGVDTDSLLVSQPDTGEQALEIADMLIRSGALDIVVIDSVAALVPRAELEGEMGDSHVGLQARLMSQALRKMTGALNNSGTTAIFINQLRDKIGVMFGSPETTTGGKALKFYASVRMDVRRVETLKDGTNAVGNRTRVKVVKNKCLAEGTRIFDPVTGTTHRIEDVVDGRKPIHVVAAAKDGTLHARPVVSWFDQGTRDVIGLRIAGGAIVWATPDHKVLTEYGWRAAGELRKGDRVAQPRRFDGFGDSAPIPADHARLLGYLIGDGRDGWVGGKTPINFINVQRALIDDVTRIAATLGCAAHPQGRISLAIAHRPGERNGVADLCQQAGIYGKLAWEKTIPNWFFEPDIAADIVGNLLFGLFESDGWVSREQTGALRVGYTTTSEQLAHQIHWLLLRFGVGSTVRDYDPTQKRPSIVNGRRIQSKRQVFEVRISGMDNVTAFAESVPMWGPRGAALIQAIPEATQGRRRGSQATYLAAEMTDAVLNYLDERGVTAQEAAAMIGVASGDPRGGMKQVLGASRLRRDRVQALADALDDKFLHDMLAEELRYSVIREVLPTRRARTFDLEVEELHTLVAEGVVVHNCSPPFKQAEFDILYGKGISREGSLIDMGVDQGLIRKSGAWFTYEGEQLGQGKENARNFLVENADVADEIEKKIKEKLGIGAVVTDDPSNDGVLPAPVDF

[11] = test system: INS1; assay: INS-1E survival protection against cytokine death – cell-based, luminescence, retest, dose response (AID 449756); format: functional; settings: Rattus norvegicus;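 note: cell death triggered by IL-1 beta plus TNF-alpha plus IFN-gamma mixture; protective hits raise ATP signal compared with cytokine alone wells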
[12] = molecular target: T6, Polyadenylate-binding protein 1 (Homo sapiens, UniProt P11940); assay: MLLE binding blockers, Cy5 peptide tracer – biochemical, fluorescence polarization, Cy5-PAM2 peptide, secondary, miRNA deadenylation inhibitor project, dose response (AID 602260); format: functional; settings: read-out: IC50_Mean
[13] = molecular target: T6, Polyadenylate-binding protein 1; assay: MLLE domain peptide-binding blockers, IC50 – biochemical, fluorescence polarization, FITC-PAM2 peptide, dose response (AID 602259); format: functional; settings: read-out: IC50_Mean
[14] = Trypanosoma cruzi growth suppression in host cells – NIH3T3 host cells, beta-gal luminescence, confirmation (AID 2044); format: functional, cell-based;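 note: intracellular parasites grown in NIH/3T3 mouse fibroblasts as host cells; luminescent beta-galactosidase reporter signal from transgenic T. cruzi replicating inside host cells; inhibitors lower the luminescence signal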
[15] = NIH3T3 cell viability loss – ATP luminescence, mouse fibroblasts, counter-screen, dose response (AID 2010); format: functional, cell-based;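 note: cells exposed to compound for about 90 hours before reading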
[16] = molecular target: Cytochrome P450 3A4 (Homo sapiens, UniProt P08684);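 note: CYP3A4 tested as one member of a cytochrome P450 panel screen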
[17] = cells; format: functional
[18] = molecular target: T7, Rac GTPase-activating protein 1 (Homo sapiens, UniProt Q9H0H5); assay: blockers of MgcRacGAP-driven Rac1 GTP hydrolysis – biochemical, ADP Hunter fluorescence, primary and confirmatory, confirmation (AID 624330); format: functional
T7 sequence (Q9H0H5 whole entry): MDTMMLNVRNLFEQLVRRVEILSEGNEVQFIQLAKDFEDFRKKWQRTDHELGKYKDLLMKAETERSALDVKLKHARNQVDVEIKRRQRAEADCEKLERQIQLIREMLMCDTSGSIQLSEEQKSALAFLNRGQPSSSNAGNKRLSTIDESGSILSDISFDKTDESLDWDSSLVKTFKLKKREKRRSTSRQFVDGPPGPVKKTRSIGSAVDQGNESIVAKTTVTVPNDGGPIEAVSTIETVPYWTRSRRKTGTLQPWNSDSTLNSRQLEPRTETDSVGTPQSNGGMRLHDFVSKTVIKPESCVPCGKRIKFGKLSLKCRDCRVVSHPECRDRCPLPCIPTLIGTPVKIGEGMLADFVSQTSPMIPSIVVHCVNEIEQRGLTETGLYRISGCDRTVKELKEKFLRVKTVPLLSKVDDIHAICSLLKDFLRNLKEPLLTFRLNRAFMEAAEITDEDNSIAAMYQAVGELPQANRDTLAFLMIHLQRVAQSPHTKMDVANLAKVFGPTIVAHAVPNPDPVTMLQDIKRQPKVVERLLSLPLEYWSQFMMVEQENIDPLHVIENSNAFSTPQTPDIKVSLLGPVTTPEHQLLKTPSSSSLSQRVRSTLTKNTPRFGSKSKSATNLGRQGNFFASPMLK

Chain of FAD-linked sulfhydryl oxidase ALR (P55789 whole entry): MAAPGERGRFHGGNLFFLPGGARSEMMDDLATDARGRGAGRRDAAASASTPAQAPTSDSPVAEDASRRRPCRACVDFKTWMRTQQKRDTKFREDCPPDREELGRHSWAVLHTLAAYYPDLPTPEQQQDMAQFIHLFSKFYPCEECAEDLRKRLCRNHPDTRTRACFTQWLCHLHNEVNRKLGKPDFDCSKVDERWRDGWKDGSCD
Chain of Large T antigen (P03070 whole entry): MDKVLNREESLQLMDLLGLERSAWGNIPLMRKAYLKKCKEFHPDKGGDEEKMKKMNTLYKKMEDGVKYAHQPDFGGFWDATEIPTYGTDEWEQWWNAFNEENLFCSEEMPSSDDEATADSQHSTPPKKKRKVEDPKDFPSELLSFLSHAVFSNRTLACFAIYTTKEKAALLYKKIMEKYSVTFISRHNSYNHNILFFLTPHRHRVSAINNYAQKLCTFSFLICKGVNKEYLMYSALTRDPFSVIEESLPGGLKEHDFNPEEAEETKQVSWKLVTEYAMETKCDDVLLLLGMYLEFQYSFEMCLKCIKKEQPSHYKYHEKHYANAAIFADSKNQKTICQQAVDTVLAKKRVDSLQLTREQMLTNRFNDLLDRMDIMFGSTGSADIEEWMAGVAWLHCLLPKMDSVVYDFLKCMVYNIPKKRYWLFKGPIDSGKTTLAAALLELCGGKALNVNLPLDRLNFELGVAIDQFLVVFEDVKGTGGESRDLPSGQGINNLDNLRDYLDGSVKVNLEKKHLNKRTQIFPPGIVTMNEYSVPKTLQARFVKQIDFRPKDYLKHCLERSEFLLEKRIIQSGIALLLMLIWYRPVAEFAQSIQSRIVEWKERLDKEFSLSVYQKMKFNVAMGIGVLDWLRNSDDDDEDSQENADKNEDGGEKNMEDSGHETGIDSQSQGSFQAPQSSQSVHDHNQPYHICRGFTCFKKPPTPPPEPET
T6 sequence (P11940 whole entry, the tested form may be a part): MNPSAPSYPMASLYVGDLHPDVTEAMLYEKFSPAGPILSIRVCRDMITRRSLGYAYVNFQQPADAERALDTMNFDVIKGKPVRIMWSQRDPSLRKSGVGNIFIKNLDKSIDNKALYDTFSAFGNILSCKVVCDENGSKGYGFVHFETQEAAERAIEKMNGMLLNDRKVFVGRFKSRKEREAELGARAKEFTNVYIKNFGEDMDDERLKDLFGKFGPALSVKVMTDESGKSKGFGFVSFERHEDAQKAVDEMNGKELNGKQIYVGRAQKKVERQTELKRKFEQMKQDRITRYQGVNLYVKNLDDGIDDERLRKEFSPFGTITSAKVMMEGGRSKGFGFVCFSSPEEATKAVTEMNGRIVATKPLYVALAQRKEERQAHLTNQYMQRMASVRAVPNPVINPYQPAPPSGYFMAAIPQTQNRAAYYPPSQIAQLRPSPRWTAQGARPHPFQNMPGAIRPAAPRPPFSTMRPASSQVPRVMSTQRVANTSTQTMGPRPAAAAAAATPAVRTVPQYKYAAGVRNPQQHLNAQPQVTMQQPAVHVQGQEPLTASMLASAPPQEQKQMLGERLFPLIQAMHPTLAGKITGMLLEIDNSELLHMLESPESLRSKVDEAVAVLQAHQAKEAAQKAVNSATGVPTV
Chain of Cytochrome P450 3A4 (P08684 whole entry): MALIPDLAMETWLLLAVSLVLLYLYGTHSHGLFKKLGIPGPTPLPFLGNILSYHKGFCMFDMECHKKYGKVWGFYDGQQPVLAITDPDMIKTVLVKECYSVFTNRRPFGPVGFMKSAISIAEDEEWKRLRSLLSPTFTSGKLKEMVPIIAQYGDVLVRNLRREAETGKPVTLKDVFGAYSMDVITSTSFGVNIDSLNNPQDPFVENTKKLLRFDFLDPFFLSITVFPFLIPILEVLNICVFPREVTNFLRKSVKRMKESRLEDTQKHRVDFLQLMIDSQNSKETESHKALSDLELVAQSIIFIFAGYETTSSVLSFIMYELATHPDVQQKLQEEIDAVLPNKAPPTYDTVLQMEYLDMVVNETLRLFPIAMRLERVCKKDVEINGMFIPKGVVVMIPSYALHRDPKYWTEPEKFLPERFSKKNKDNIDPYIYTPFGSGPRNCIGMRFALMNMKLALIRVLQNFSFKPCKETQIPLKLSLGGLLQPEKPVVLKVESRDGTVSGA

## Cc1cc2c(Nc3ccc(O)cc3)ncnc2s1
[1]
  IC50: 5.5 µM (active)

## CCN(CC)c1ccc(NC(=O)c2cccnc2)cc1
[1]
  IC50: 13.5 µM (active)
[2]
  AC50: 327 nM (active)

## O=C(NCC(c1ccco1)N1CCc2ccccc21)c1ccccc1 (centres undefined)
[2]
  AC50: 1210 nM (active)

## O=C(CCCn1c(=S)[nH]c2ccsc2c1=O)NCCc1ccccc1
[3]
  IC50: > 20 µM (inactive)

## O=C(CCN1C(=O)C2CC=C(Cl)CC2C1=O)N1CCCCC1 (centres undefined)
[4]
  EC50: 29.5 µM (active)
[5]
  EC50: 18.1 µM (active)

## CCN(CC)C(=O)CSc1nnc2nnc3cc(OC)ccc3n12
[6]
  EC50: 14.9 µM (active)
[4]
  EC50: 7.7 µM (active)
[7]
  EC50: > 120 µM (not active)
[5]
  EC50: 5.43 µM (active)
[8]
  EC50: 10.8 µM (active)
[9]
  AC50: > 380 µM (inactive)
[10]
  EC50: 128 µM (active)

## COc1cc(C(=O)Nc2ccc(O)cc2)ccc1OC(C)=O
[1]
  IC50: 6.12 µM (active)

## O=C(NNC(=O)c1ccccc1O)c1ccco1
[4]
  EC50: 24 µM (active)
[5]
  EC50: 19.4 µM (active)

## CCc1cc(SC#N)cc(C)c1NC(=O)CCl
[1]
  IC50: > 100 µM (active)
[11]
  AC50: 5.76 µM (active)
[12]
  IC50: > 66 µM (inactive)
[13]
  IC50: > 66 µM (inactive)

## Cc1ccc(S(=O)(=O)N2CCOCC2)cc1NC(=O)CN(C)C1CCS(=O)(=O)C1 (centres undefined)
[4]
  EC50: > 300 µM (not active)
[5]
  EC50: > 300 µM (not active)

## C=CCn1c(SCc2ccc(Cl)cc2)nc2cc(C(=O)N3CCC(C(N)=O)CC3)ccc2c1=O
[3]
  IC50: > 20 µM (inactive)

## Clc1ccc2nc(N3CCCCC3)[nH]c2c1
[2]
  AC50: 4040 nM (active)

## CN1CCCc2cc3c(C(F)(F)F)cc(=O)oc3nc21
[4]
  EC50: 24.9 µM (active)
[5]
  EC50: 25.7 µM (inconclusive)

## O=C(NCC(c1cccnc1)N1CCN(c2ccc(F)cc2)CC1)c1ccco1 (centres undefined)
[14]
  EC50: 460 nM (active)
[15]
  EC50: > 60 µM (inconclusive)
[2]
  AC50: 4660 nM (active)

## Cc1ccc(N2C(=O)/C(=C/c3ccc(CN(CCC#N)S(C)(=O)=O)o3)C(=O)NC2=S)cc1C
[4]
  EC50: 15.5 µM (active)
[5]
  EC50: 9.89 µM (active)
[16]
  AC50: 22.4 µM (inconclusive)

## COc1ccc(C(=O)NN=C(C)/C=C(\O)c2ccccc2)cc1
[17]
  IC50: > 50 µM (active)

## CC1CN(S(=O)(=O)c2cccc(C(=O)N(Cc3nnc(-c4ccccc4Cl)o3)C3CC3)c2)CC(C)O1 (centres undefined)
[3]
  IC50: > 20 µM (inactive)

## O=C(NCc1ccccn1)c1ccc2c(c1)N(Cc1ccccc1)CCS2
[2]
  AC50: 511 nM (active)

## COc1cc(/C=C2\NC(=S)N(C)C2=O)ccc1O
[1]
  IC50: 3.22 µM (active)

## N#CC1=C(N)OC2=C(C(=O)CCC2)C12C(=O)N1CCCc3cccc2c31 (centres undefined)
[4]
  EC50: > 300 µM (not active)
[5]
  EC50: > 300 µM (not active)

## Cc1sc(/C=C2\C(=O)ON=C2c2ccccc2)cc1Br
[4]
  EC50: 24.1 µM (inconclusive)
[5]
  EC50: 7.46 µM (inconclusive)

## CC(=O)Nc1ccc(Nc2nc3ccccc3nc2NS(=O)(=O)c2ccccc2)cc1
[2]
  AC50: 130 nM (active)

## CC(=O)Nc1ccc(S(=O)(=O)Nc2ccc(Nc3ccccc3)cc2)cc1
[2]
  AC50: 268 nM (active)
[18]
  IC50: 70.1 µM (active)

## O=C(Nc1ccccc1N1CCCC1)c1ccc(N2CCCC2=O)cc1
[2]
  AC50: 1550 nM (active)

## Cc1nnc(N/N=C/c2ccc(Br)cc2)n1N
[17]
  IC50: 2.75 µM (active)

## COc1cc(/C=N/N(C)C)ccc1OC(=O)c1cccs1
[17]
  IC50: 24.2 µM (active)

## O=C(CN1CCOCC1)N/N=C/c1ccc(-c2ccc(Br)cc2)o1
[17]
  IC50: > 50 µM (active)

## Cc1ccc(S(=O)(=O)Nc2nc(C)cc(N/N=C/c3ccc(O)cc3)n2)cc1
[1]
  IC50: 10.6 µM (active)
